From ChEMBL document CHEMBL5223094, “Recent advancements in chromone as a privileged scaffold towards the development of small molecules for neurodegenerative therapeutics” (RSC Med Chem, 2022)

Experiments:
[1] = molecular target: T1, Polyunsaturated fatty acid 5-lipoxygenase (Homo sapiens, UniProt P09917); experiment: Inhibition of LOX5 (unknown origin)
T1 sequence (P09917 whole entry): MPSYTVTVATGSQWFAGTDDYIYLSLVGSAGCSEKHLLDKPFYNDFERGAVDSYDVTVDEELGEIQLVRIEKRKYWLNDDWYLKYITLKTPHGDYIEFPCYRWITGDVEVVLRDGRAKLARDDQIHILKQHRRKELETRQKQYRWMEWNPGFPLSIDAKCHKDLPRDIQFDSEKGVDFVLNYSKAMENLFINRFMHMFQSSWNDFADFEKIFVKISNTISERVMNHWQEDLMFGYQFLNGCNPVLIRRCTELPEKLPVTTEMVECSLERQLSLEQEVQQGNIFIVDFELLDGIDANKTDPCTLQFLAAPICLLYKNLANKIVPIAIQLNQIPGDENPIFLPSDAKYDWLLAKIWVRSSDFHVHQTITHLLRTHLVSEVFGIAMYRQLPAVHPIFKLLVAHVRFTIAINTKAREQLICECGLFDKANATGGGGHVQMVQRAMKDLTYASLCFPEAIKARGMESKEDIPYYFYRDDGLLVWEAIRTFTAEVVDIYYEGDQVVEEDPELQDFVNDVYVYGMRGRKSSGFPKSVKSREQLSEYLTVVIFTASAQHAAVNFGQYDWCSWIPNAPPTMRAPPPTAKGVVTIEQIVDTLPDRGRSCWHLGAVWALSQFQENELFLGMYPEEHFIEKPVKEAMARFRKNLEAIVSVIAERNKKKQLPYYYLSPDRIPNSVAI

[2] = molecular target: T2, Prostaglandin G/H synthase 2 (Homo sapiens, UniProt P35354); experiment: Inhibition of COX2 (unknown origin)
T2 sequence (P35354 whole entry): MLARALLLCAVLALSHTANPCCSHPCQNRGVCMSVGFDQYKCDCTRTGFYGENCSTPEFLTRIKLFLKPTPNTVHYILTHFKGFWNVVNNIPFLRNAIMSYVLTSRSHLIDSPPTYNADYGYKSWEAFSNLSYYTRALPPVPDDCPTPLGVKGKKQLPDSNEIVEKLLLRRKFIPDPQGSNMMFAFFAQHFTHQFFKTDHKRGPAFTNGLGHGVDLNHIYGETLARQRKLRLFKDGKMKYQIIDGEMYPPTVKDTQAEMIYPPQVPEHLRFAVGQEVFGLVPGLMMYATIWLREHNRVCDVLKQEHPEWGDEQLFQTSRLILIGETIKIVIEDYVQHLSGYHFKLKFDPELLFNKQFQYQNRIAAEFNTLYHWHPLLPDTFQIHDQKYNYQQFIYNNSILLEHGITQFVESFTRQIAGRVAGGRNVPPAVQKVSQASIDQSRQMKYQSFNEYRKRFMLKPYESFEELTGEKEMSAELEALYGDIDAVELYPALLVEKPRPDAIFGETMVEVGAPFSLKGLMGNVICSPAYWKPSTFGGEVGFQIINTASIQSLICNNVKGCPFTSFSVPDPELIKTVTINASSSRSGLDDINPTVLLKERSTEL

Beta-secretase 1 = Beta-secretase 1 (Homo sapiens, UniProt P56817); experiment: Inhibition of recombinant human BACE-1 expressed in baculovirus using Rh-EVNLDAEFK-Quencher as substrate incubated for 60 mins by FRET assay
Beta-secretase 1, sequence (P56817 whole entry): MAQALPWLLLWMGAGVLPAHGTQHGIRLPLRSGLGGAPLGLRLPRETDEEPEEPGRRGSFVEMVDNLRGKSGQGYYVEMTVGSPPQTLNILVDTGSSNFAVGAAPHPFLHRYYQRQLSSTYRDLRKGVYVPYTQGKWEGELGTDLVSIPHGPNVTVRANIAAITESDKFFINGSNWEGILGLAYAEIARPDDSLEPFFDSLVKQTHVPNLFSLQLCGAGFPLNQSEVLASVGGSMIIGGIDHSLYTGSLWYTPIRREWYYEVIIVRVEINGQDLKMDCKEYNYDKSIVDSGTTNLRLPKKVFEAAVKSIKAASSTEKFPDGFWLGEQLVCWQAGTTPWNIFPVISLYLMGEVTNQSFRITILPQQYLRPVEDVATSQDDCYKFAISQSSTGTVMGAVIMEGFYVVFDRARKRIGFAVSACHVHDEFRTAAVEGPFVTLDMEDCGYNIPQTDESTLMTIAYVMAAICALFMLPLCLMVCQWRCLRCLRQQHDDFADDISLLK

Acetylcholinesterase [3] = molecular target: T3, Acetylcholinesterase (Homo sapiens, UniProt P22303); experiment: Inhibition of recombinant human AChE using acetylthiocholine as substrate preincubated for 15 mins followed by substrate addition and measured after 5 mins by DTNB reagent based Ellman's method
T3 sequence (P22303 whole entry): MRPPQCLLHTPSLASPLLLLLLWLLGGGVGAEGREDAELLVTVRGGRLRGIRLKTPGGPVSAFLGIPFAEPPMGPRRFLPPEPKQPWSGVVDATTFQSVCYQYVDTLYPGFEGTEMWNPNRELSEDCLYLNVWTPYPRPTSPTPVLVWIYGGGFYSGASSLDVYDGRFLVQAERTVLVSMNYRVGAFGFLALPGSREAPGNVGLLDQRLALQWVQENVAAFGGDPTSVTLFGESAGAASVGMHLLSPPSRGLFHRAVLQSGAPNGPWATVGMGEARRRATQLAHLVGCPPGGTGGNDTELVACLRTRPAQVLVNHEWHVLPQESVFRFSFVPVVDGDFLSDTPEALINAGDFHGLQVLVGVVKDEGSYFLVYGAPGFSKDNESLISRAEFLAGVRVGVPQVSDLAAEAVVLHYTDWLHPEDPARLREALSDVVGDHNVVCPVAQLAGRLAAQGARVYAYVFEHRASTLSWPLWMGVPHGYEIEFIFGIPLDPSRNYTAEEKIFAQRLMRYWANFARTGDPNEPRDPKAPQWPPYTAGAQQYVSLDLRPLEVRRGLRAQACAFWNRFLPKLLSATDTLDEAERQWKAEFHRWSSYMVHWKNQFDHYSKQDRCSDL

Cholinesterase [4] = molecular target: T4, Cholinesterase (Homo sapiens, UniProt P06276); experiment: Inhibition of recombinant human BuChE using butyrylthiocholine as substrate preincubated for 15 mins followed by substrate addition and measured after 5 mins by Ellman's method
T4 sequence (P06276 whole entry): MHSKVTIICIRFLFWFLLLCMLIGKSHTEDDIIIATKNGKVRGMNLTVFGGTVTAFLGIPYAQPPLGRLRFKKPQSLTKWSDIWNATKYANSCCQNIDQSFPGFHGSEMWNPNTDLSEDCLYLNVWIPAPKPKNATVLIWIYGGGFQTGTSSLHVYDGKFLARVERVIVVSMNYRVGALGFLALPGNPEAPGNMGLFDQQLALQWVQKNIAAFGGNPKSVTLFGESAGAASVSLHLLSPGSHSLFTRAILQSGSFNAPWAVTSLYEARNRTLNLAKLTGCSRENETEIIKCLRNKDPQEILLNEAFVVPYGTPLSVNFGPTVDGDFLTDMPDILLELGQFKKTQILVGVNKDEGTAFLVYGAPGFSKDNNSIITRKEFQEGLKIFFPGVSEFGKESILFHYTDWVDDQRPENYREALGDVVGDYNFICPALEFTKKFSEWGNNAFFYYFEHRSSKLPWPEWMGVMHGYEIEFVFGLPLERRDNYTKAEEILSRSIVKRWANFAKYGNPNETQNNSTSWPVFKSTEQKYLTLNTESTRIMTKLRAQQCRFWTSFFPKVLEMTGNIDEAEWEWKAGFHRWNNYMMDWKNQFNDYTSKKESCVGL

[5] = molecular target: T2, Prostaglandin G/H synthase 2; experiment: Inhibition of COX2 (unknown origin) using arachidonic acid as substrate preincubated for 5 mins followed by substrate addition by microplate spectrophotometric analysis
[6] = molecular target: T1, Polyunsaturated fatty acid 5-lipoxygenase; experiment: Inhibition of human LOX5 using arachidonic acid preincubated for 10 mins followed by substrate addition by microplate spectrophotometric analysis
[7] = Inhibition of soybean LOX15 using arachidonic acid preincubated for 5 mins followed by substrate addition and measured after 5 mins by microplate spectrophotometric analysis; parameters: species or system Glycine max
[8] = molecular target: T5, Amine oxidase [flavin-containing] B (Homo sapiens, UniProt P27338); experiment: Inhibition of recombinant human MAO-B using kynuramine as substrate preincubated for 10 mins followed by enzyme addition and measured after 20 mins by fluorescent microplate reader analysis
T5 sequence (P27338 whole entry): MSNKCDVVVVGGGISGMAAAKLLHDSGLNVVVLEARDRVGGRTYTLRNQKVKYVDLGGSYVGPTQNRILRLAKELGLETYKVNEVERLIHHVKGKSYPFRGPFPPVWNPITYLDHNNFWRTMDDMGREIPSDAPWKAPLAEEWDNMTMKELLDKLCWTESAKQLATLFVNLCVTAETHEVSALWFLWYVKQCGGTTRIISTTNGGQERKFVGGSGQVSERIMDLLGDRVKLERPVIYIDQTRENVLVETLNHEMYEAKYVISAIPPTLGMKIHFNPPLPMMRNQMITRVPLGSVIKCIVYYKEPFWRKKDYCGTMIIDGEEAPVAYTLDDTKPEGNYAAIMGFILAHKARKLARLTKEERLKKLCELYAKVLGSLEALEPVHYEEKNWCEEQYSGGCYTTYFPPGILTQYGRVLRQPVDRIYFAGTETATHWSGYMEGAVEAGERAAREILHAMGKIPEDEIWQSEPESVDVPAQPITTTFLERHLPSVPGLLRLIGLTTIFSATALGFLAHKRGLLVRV

Homo sapiens [9] = organism: Homo sapiens; experiment: Selectivity index, ratio of IC50 for inhibition of recombinant human MAO-B to IC50 for inhibition of recombinant human MAO-A
[10] = Selectivity index, ratio of Ki for displacement of [3H](+)-pentazocine from human sigma 1 receptor expressed in human HEK293 cells to Ki for displacement of (+)-[3H]DTG from rat sigma 2 receptor; type: cell-based
[11] = molecular target: T5, Amine oxidase [flavin-containing] B; experiment: Inhibition of MAO-B (unknown origin)
Cholinesterase [12] = molecular target: T4, Cholinesterase; experiment: Inhibition of BuChE (unknown origin)
[13] = molecular target: Amyloid-beta precursor protein (Homo sapiens) (UniProt P05067); experiment: Inhibition of self-induced amyloid beta (1 to 42) (unknown origin) aggregation by ThT fluorometric assay; conditions: concentration not given here
Amyloid-beta precursor protein (Homo sapiens), sequence (P05067 whole entry): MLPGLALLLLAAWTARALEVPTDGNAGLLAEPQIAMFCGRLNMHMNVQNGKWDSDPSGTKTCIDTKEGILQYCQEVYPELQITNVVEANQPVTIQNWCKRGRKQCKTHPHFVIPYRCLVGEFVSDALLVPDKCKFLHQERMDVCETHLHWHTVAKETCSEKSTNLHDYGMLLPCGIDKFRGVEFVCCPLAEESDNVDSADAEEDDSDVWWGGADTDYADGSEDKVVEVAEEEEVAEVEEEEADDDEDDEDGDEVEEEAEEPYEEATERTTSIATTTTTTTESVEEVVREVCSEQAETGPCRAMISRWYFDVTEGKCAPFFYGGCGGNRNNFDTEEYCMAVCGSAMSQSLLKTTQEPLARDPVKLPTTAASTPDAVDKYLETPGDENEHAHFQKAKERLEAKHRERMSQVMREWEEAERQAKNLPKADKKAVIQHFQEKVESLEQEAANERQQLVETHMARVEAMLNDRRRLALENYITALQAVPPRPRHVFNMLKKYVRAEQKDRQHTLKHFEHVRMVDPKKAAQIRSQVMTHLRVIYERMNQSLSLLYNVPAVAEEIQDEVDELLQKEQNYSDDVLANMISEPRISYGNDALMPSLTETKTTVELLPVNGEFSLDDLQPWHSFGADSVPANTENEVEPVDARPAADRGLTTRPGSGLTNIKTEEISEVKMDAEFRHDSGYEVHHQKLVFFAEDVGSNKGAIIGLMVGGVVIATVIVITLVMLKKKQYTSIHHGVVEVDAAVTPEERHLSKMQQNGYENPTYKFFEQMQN

Acetylcholinesterase [14] = molecular target: Acetylcholinesterase (Electrophorus electricus, UniProt O42275); experiment: Inhibition of electric eel AChE using acetylthiocholine iodide as substrate preincubated for 15 mins followed by substrate addition by Ellman's method
Acetylcholinesterase (Electrophorus electricus, UniProt O42275), sequence (O42275 whole entry): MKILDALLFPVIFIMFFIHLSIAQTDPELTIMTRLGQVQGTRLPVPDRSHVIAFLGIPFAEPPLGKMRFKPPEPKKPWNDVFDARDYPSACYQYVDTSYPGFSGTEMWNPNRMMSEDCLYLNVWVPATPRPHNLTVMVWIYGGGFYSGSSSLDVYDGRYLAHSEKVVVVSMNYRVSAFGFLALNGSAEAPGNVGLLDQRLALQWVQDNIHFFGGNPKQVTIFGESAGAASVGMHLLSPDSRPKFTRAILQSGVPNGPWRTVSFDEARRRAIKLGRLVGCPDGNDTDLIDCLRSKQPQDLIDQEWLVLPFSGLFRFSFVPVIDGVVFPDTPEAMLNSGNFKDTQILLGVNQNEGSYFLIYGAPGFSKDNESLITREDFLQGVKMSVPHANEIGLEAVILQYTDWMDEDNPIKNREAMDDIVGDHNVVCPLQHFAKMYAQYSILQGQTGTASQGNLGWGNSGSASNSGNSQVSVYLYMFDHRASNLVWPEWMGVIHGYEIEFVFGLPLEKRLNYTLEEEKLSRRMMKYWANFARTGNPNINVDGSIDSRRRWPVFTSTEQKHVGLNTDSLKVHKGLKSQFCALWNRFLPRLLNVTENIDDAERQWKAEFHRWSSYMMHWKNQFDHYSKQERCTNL

Cholinesterase [15] = molecular target: Cholinesterase (Equus caballus, UniProt P81908); experiment: Inhibition of equine serum BuChE using butyrylthiocholine chloride as substrate preincubated for 15 mins followed by substrate addition by Ellman's method
Cholinesterase (Equus caballus, UniProt P81908), sequence (P81908 whole entry): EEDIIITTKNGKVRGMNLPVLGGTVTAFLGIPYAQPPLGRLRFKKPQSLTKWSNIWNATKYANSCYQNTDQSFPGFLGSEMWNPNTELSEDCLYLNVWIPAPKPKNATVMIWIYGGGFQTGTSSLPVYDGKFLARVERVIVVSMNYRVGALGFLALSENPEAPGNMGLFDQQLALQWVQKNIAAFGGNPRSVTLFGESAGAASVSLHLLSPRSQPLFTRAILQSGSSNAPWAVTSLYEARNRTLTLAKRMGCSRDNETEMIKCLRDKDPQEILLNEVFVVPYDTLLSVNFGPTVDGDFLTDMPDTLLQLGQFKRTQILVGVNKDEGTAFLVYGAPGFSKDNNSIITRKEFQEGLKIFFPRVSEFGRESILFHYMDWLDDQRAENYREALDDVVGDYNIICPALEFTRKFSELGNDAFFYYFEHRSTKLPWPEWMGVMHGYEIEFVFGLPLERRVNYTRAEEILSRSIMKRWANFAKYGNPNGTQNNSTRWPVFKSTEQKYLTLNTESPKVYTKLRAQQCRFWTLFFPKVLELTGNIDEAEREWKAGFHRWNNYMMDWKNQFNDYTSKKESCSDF

[16] = molecular target: Amyloid-beta precursor protein (Homo sapiens) (UniProt P05067); experiment: Inhibition of self-induced amyloid beta (1 to 42) (unknown origin) aggregation at 10 uM incubated for 48 hrs by ThT fluorometric assay
[17] = molecular target: Amyloid-beta precursor protein (Homo sapiens) (UniProt P05067); experiment: Inhibition of electric eel AChE-indued amyloid beta (1 to 42) (unknown origin) aggregation at 100 uM incubated for 24 hrs by ThT fluorometric assay
[18] = molecular target: T6, Amine oxidase [flavin-containing] A (Homo sapiens, UniProt P21397); experiment: Inhibition of recombinant human MAO-A using kynuramine as substrate preincubated for 10 mins followed by enzyme addition and measured after 20 mins by fluorescent microplate reader analysis
T6 sequence (P21397 whole entry): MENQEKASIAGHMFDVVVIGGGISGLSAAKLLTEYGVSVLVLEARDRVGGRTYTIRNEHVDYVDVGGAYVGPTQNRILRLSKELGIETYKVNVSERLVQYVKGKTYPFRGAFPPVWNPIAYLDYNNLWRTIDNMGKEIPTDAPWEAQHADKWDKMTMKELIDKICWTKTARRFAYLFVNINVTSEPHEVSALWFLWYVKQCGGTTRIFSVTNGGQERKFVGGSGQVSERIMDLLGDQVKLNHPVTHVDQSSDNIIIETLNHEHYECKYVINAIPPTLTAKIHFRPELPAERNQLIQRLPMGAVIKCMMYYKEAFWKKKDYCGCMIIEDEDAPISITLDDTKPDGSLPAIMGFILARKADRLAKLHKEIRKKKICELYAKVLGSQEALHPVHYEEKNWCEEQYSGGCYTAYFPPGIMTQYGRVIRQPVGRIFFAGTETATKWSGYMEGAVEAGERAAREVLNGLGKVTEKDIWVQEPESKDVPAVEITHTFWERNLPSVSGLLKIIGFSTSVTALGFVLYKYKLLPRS

Homo sapiens [19] = organism: Homo sapiens; experiment: Selectivity index, ratio of IC50 for inhibition of recombinant human MAO-A to IC50 for inhibition of recombinant human MAO-B
SH-SY5Y = experiment: Neuroprotective activity against 6-OHDA-induced cell death in human SH-SY5Y cells assessed as cell viability; type: functional, cell-based
[20] = molecular target: T5, Amine oxidase [flavin-containing] B; experiment: Inhibition of human MAO-B using tyramine as substrate preincubated for 10 mins followed by substrate addition and measured after 30 mins by fluorometric method
Homo sapiens [21] = organism: Homo sapiens; experiment: Selectivity index, ratio of IC50 for inhibition of human MAO-B to IC50 for inhibition of human MAO-A
[22] = molecular target: T6, Amine oxidase [flavin-containing] A; experiment: Inhibition of MAO-A (unknown origin)
[23] = molecular target: T6, Amine oxidase [flavin-containing] A; experiment: Inhibition of MAO-A (unknown origin) by fluorescence spectrophotometer analysis
[24] = molecular target: T5, Amine oxidase [flavin-containing] B; experiment: Inhibition of MAO-B (unknown origin) by fluorescence spectrophotometer analysis
Acetylcholinesterase [25] = molecular target: T3, Acetylcholinesterase; experiment: Inhibition of AChE (unknown origin) using acetylthiocholine iodide as substrate preincubated for 20 mins followed by substrate addition by Ellman's method
Cholinesterase [26] = molecular target: T4, Cholinesterase; experiment: Inhibition of BuChE (unknown origin) using butyrylthiocholine iodide as substrate preincubated for 20 mins followed by substrate addition by Ellman's method
[27] = molecular target: Amyloid-beta precursor protein (Homo sapiens) (UniProt P05067); experiment: Inhibition of amyloid beta (unknown origin); conditions: concentration not given here
[28] = molecular target: Amyloid-beta precursor protein (Homo sapiens) (UniProt P05067); experiment: Inhibition of amyloid beta (1 to 42) (unknown origin) aggregation at 50 uM incubated for 24 hrs by ThT fluorometric assay
Homo sapiens [29] = organism: Homo sapiens; experiment: Selectivity index, ratio of IC50 for inhibition of MAO-B (unknown origin) to IC50 for inhibition of MAO-A (unknown origin)

O=c1c(/C=N/Nc2ccc(C(F)(F)F)cc2)coc2c1ccc1oc(-c3ccc(Cl)cc3)cc12
IC50 [1]: 28500 nM
IC50 [2]: 10400 nM
IC50 (Beta-secretase 1): 14000 nM
IC50 (Acetylcholinesterase [3]): 5000 nM
IC50 (Cholinesterase [4]): 10000 nM
IC50 [5]: 10000 nM
IC50 [6]: 29000 nM
IC50 [7]: 15000 nM

COc1ccc2c(=O)cc(-n3ccc4ccccc43)oc2c1
IC50 [8]: 150 nM
Ratio IC50 (Homo sapiens [9]): > 670

O=c1ccoc2ccc(OCCCN3CCCCCC3)cc12
Ratio Ki [10]: 28

COc1ccc2c(=O)c(N3CCN(c4ccccc4)CC3)coc2c1
IC50 [11]: 15 nM
IC50 [8]: 15 nM
Ratio IC50 (Homo sapiens [9]): > 6700

O=C(CCCCC1CCSS1)NCc1cn(CCCCOc2ccc3c(=O)ccoc3c2)nn1 (stereo not drawn)
IC50 (Cholinesterase [12]): 8000 nM
inhibition [13]: 13%

O=c1cc(-c2ccc(Cl)cc2)oc2cc(OCCCC[n+]3ccccc3)ccc12
IC50 (Acetylcholinesterase [14]): 6 nM
IC50 (Cholinesterase [15]): 2000 nM
inhibition [16]: 28%
inhibition [17]: 22%

COc1ccc2oc(-n3ccc4ccccc43)cc(=O)c2c1
IC50 [18]: 320 nM
IC50 [8]: 630 nM

COc1ccc2oc(/C=C/c3ccc(Cl)cc3)cc(=O)c2c1
Ratio IC50 (Homo sapiens [19]): 1500

COc1ccc(-c2oc3cc(Br)c(I)cc3c(=O)c2O)cc1
IC50 (Beta-secretase 1): 16000 nM

O=c1ccoc2ccc(OCCCCCN3CCOCC3)cc12
Ratio Ki [10]: 130

COCOc1cc2occ(-c3ccc(OC)cc3)c(=O)c2c2c1CC(O)C(C)(C)O2 (stereo not drawn)
EC50 (SH-SY5Y): 500 nM

COc1ccc2ccn(-c3cc(=O)c4ccccc4o3)c2c1
IC50 [8]: 150 nM
Ratio IC50 (Homo sapiens [9]): > 670

CCc1cc[n+](CCCOc2ccc3c(=O)cc(-c4ccc(OC)cc4)oc3c2)cc1
IC50 (Acetylcholinesterase [14]): 3000 nM
IC50 (Cholinesterase [15]): 700 nM
inhibition [16]: 32%
inhibition [17]: 37%

COc1ccc(NC(=O)c2c(OCc3ccccc3)ccc3c(=O)c(C)c(C)oc23)cc1
IC50 [20]: 100 nM
Ratio IC50 (Homo sapiens [21]): 324

COc1ccc2oc(-n3cncn3)cc(=O)c2c1
IC50 [22]: 23 nM

O=c1cc(-c2ccc(Cl)cc2)oc2ccc(Cn3cc(Nc4ccc(F)cc4)nn3)cc12
IC50 [23]: 1600 nM
IC50 [24]: 2100 nM

O=c1c(O)c(-c2ccccc2)oc2cc(Br)c(I)cc12
IC50 (Acetylcholinesterase [25]): 10000 nM
IC50 (Cholinesterase [26]): 6000 nM

COc1cccc2oc3c(c(=O)c12)[C@@H](O)CC3
inhibition [27]: 80.4%
inhibition [28]: 80%

O=c1cc(-c2ccc(Cl)cc2)oc2ccc(Cn3cc(Oc4cccc(O)c4)nn3)cc12
Ratio IC50 (Homo sapiens [29]): > 14

COc1cccc2oc3c(c(=O)c12)[C@H](O)CC3
inhibition [28]: 74%
